Consider one compound from US20170081338A1, “SUBSTITUTED HETEROARYL COMPOUNDS AND METHODS OF USE” (Sunshine Lake Pharma Co., Ltd., priority 2015, published 2017).

Each structure is given as a SMILES string. pIC50: −log10 of the molar value.

Data set [1] deals with T1, Aurora-B (h) (Homo sapiens, UniProt Q96GD4).
T1 construct: purchased Millipore UK Ltd (contract assay service)
The data set is described as follows: Aurora-B (h) kinase assay. The data set is classed as biochemical. As for the experimental part: (§1) Kinase assays can be performed by measurement of incorporation of γ-^33P ATP into immobilized myelin basic protein (MBP). High binding white 384 well plates (Greiner) are coated with MBP (Sigma #M-1891) by incubation of 60 μL/well of 20 μg/mL MBP in Tris-buffered saline (TBS; 50 mM Tris pH 8.0, 138 mM NaCl, 2.7 mM KCl) for 24 h at 4° C. Plates are washed 3× with 100 μL TBS. Kinase reactions are carried out in a total volume of 34 μL in kinase buffer (according to the need to make, for example, 5 mM Hepes pH 7.6, 15 mM NaCl, 0.01% bovine gamma globulin (Sigma #1-5506), 10 mM MgCl2, 1 mM DTT, 0.02% TritonX-100). Compound dilutions are performed in DMSO and added to assay wells to a final DMSO concentration of 1%. Each data point is measured in duplicate, and at least two duplicate assays are performed for each individual compound determination. Enzyme is added to final concentrations of 10 nM or 20 nM, for example. A mixture of unlabeled ATP and γ-^33P ATP is added to start the reaction (2×10^6 cpm of γ-^33P ATP per well (3000 Ci/mmole) and 10 μM unlabeled ATP, typically. The reactions are carried out for 1 h at room temperature with shaking. Plates are washed 7× with TBS, followed by the addition of 50 µL/well scintillation fluid (Wallac). Plates are read using a Wallac Trilux counter. This is only one format of such assays; various other formats are possible, as known to one skilled in the art.
(§2) The above assay procedure can be used to determine the IC50 for inhibition and/or the inhibition constant, Ki. The IC50 is defined as the concentration of compound required to reduce the enzyme activity by 50% under the condition of the assay. The IC50 value is estimated by preparing a 10 point curve using a 1/2 log dilution series (for example, a typical curve may be prepared using the following compound concentrations: 3 μM, 1 μM, 0.3 μM, 0.1 μM, 0.03 μM, 0.01 μM, 0.003 μM, 0.001 μM, 0.0003 μM and 0 μM).
Aurora-B (h) is incubated with 8 mM MOPS pH 7.0, 0.2 mM EDTA, 30 μM AKRRRLSSLRA, 10 mM MgAcetate and [γ-^33PATP] (specific activity approx. 500 cpm/pmol, concentration as required). The reaction is initiated by the addition of the MgATP mix. After incubation for 40 minutes at room temperature, the reaction is stopped by the addition of a 3% phosphoric acid solution. 10 μL of the reaction is then spotted onto a P30 filtermat and washed three times for 5 minutes in 75 mM phosphoric acid and once in methanol prior to drying and scintillation counting.
(§3) The kinase assays described herein were performed at Millipore UK Ltd, Dundee Technology Park, Dundee DD2 1SW, UK.

In data set [2] the target is T2, Aurora-A (h) (Homo sapiens, UniProt O14965).
T2 construct: purchased Millipore UK Ltd (contract assay service)
T2 sequence (O14965 1-403): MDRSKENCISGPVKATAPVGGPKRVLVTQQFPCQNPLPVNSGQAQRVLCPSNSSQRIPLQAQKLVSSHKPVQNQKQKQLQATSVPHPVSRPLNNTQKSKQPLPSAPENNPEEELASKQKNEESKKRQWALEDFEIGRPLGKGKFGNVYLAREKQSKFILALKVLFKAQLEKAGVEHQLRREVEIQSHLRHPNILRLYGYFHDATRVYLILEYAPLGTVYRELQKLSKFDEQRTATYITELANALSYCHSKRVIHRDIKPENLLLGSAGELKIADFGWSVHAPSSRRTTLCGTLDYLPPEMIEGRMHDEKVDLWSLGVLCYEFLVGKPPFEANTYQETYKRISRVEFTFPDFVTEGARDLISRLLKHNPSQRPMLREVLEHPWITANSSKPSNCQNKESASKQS
The data set is described as follows: Aurora-A (h) kinase assay. The data set is classed as biochemical. The procedure, abridged:
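Human Aurora-A incubated with 200 μM Kemptide, 10 mM Mg acetate, [γ-33P]ATP in 8 mM MOPS pH 7.0 for 40 min at room temperature; stopped with phosphoric acid, spotted on P30 filtermat and scintillation counted. IC50 from 10-point ½-log dilution series.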

The target of data set [3] is T3, JAK1 (h) (Homo sapiens, UniProt P23458).
T3 construct: purchased Millipore UK Ltd (contract assay service)
Description: JAK1 (h) kinase assay. The class given is biochemical. The procedure: as §1, §2
JAK1 (h) is incubated with 20 mM Tris/HCl pH 7.5, 0.2 mM EDTA, 500 μM GEEPLYWSFPAKKK, 10 mM MgAcetate and [γ-^33P-ATP] (specific activity approx. 500 cpm/pmol, concentration as required). The reaction is initiated by the addition of the MgATP mix. After incubation for 40 minutes at room temperature, the reaction is stopped by the addition of 3% phosphoric acid solution. 10 μL of the reaction is then spotted onto a P30 filtermat and washed three times for 5 minutes in 75 mM phosphoric acid and once in methanol prior to drying and scintillation counting.
as §3

Data set [4] is described as follows: Pharmacokinetics after intravenous and oral administration in rats. The data set is classed as in vivo. The procedure, abridged:
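Compounds dosed IV at 0.5, 1 or 2 mg/kg and orally at 0.5, 1, 5 or 10 mg/kg in rats, as solution, suspension or capsule formulations. Serial blood sampled out to 24 h and plasma stored frozen. Plasma levels quantified by LC/MS/MS in ESI MRM mode.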

Setting [5] is: rat, plasma, iv dosing, dose 1 mg/kg.

T1 sequence (Q96GD4 whole entry): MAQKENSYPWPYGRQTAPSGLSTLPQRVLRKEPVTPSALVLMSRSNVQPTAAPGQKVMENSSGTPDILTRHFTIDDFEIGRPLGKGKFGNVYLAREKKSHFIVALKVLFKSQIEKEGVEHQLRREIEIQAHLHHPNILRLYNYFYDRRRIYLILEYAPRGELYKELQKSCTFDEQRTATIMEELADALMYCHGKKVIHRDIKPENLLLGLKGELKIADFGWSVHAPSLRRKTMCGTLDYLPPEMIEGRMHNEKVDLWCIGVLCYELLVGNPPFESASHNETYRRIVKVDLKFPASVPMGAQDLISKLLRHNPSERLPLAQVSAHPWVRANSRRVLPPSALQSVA
T3 sequence (P23458 whole entry): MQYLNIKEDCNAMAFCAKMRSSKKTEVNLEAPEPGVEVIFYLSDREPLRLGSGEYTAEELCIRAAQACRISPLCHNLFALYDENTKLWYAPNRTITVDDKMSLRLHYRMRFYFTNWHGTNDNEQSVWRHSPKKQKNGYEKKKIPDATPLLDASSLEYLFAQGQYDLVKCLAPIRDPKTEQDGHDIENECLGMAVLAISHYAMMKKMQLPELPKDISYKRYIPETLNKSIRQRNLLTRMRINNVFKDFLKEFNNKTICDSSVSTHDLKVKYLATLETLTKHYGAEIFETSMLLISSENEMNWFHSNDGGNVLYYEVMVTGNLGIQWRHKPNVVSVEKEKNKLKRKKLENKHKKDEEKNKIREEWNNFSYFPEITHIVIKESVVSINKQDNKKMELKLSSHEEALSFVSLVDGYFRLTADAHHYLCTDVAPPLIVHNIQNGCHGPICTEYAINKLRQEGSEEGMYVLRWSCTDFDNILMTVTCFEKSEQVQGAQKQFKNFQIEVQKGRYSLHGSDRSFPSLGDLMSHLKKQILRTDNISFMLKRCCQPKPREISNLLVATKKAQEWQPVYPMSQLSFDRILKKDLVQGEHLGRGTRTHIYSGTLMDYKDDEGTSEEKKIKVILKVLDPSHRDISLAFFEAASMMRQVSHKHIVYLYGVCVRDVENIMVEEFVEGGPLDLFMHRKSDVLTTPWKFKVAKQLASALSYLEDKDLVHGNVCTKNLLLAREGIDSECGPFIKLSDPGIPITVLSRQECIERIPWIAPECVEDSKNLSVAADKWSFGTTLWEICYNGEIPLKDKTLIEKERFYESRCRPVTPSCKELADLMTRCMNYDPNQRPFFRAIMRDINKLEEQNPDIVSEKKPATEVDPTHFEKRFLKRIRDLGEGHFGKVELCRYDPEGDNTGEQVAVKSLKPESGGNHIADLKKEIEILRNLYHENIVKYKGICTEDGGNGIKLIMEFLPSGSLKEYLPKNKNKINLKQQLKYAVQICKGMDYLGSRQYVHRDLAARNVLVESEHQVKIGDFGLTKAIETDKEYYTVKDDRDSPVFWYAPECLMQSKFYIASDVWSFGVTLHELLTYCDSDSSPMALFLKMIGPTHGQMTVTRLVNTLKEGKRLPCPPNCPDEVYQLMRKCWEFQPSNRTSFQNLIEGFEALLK

With `Cn1cc(Nc2ncc(Cl)c(N[C@@H]3COC4C3OC[C@@H]4NS(=O)(=O)CC3CCCC3)n2)cn1` (stereo partly drawn) [Ex. 21, N-((3S,6R)-6-((5-chloro-2-((1-methyl-1H-pyrazol-4-yl)amino)pyrimidin-4-yl)amino)hexahydrofuro[3,2-b]furan-3-yl)-1-cyclopentylmethanesulfonamide], the pIC50 was 8.22 in data set [1], 8.70 in data set [2] and 7.62 in data set [3]. For the same compound, the “Clearance (CL) after iv dosing” value in data set [4] (iv dosing, dose 1 mg/kg) stood at 24.8 mL/min/kg. In addition, the F in data set [4] (oral bioavailability) amounted to 63.7%. In data set [4] (setting [5]), this compound gave an AUC(0-t) of 680 ng·h/mL. Further, in data set [4] (setting [5]), the half-life is 18 min. For the same compound, the Vd in data set [4] (rat, plasma, iv dosing, dose 1 mg/kg, read-out: Vss) is 0.69 L/kg.

Broadly, the pIC50 is the negative decadic logarithm of the IC50, by convention in mol/L. Read a high pIC50 as a low IC50. What is called AUC(0-t) is exposure summed from dosing to a finite time, without extrapolation to infinity. Low values mean less exposure, high ones more exposure. The half-life is the time needed for the level to fall by half in the phase considered.
